One series relates to STING (IFN-β in hPBMC). The series can be described thus: hPBMC cytokine functional assay (IFN-β decrease after Baculovirus stimulation). Particulars: Homo sapiens, Baculovirus MOI 40, 24 hours, read-out: hPBMC_IC50. Format: cell-based. The essentials:
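Thawed hPBMC (70K cells/well) rested ≥3 h, then dosed with compound (final 0.5% DMSO) and infected with Baculovirus at MOI 40. Secreted IFN-β read by HTRF after 24 h at 37 °C. Cell viability checked in parallel by CellTiter-Glo.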

Series [1] can be described thus: Metabolic (liver microsomal) stability assay. Particulars: human liver microsomes, 1 μM test compound.
Experimental: The liver microsomal stability assay is used for early assessment of metabolic stability of a test compound in liver microsomes.
Liver microsomes were preincubated with test compound for 10 minutes at 37° C. in 100 mM potassium phosphate buffer, pH 7.4. The reactions were initiated by adding NADPH regenerating system. The final incubation mixtures contained 1 μM test compound, 0.5 mg/mL liver microsomal protein, 1 mM MgCl2, 1 mM NADP, 1 unit/mL isocitric dehydrogenase and 6 mM isocitric acid in 100 mM potassium phosphate buffer, pH 7.4. After incubation times of 0, 3, 6, 9, 15 and 30 minutes at 37° C., 300 μL of cold acetonitrile (including internal standard) was added to 100 μL incubation mixture to terminate the reaction. Following precipitation and centrifugation, the amount of compound remaining in the samples were determined by LC-MS/MS. Controls of no NADPH regenerating system at zero and 30 minutes were also prepared and analyzed.
For series [2], the target named is human stimulator of interferon genes (STING) (139-379) (Homo sapiens (Human), UniProt Q86WV6). Kind of series: Microliter plate-based TR-FRET competition-binding assay for binders of STING. Particulars: Alexa488 probe, read-out: FRET_IC50. The essentials: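 E. coli-expressed C-terminal flag-tagged STING (139-379) at 2.5 nM with 2.5 nM Tb-anti-Flag and 250 nM Alexa488-labelled active-site probe, 30 min at room temperature. TR-FRET 520/485 nm ratio after 320 nm excitation. Percent inhibition calculated relative to the 2′3′cGAMP positive control.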

The target in another series is hERG channel (Homo sapiens (Human), UniProt Q12809). The series can be described thus: hERG channel inhibition assay (patch-clamp, CHOhERG cells). Format: cell-based. The conditions noted are these: for IC20: human, CHO cells stably expressing hERG (CHOhERG). An excerpt:
The hERG K^+ channels were cloned in humans and stably expressed in a CHO (Chinese hamster ovary) cell line. CHOhERG cells (obtained from Roche Palo Alto LLC Cell Core Facilities) were used for patch-clamp (voltage-clamp, whole-cell) experiments. Cells were stimulated by a voltage pattern to activate hERG channels and conduct IKhERG currents (rapid delayed outward rectifier potassium current of the hERG channel). After the cells were stabilized in an internal solution that contains (in mM): KCl 10, KF 100, NaCl 10, HEPES 10, EGTA 20, pH=7.2 with KOH (osmolarity 260-300 mOsm) for a few minutes, the amplitude and kinetics of IKhERG were recorded at a stimulation frequency of 0.1 Hz (6 bpm). Thereafter, the test compound was dissolved in extracellular solution that contains (in mM): NaCl 150, KCl 4, CaCl2 1.2, MgCl2 1, HEPES 10, glucose 5, pH 7.2-7.4 with NaOH (osmolarity 290-330 mOsm), and was added to the preparation at increasing concentrations. For each concentration, an attempt was made to reach a steady-state effect, usually, this was achieved within 3-10 min at which time the next highest concentration was applied. The amplitude and kinetics of IKhERG are recorded in each concentration of the drug which were compared to the control values (taken as 100%).
(hERG is a cardiac potassium channel; its block is linked to QT prolongation.)

The IC20 is the concentration needed for an effect of 20%.

hERG channel, sequence (Q12809 whole entry): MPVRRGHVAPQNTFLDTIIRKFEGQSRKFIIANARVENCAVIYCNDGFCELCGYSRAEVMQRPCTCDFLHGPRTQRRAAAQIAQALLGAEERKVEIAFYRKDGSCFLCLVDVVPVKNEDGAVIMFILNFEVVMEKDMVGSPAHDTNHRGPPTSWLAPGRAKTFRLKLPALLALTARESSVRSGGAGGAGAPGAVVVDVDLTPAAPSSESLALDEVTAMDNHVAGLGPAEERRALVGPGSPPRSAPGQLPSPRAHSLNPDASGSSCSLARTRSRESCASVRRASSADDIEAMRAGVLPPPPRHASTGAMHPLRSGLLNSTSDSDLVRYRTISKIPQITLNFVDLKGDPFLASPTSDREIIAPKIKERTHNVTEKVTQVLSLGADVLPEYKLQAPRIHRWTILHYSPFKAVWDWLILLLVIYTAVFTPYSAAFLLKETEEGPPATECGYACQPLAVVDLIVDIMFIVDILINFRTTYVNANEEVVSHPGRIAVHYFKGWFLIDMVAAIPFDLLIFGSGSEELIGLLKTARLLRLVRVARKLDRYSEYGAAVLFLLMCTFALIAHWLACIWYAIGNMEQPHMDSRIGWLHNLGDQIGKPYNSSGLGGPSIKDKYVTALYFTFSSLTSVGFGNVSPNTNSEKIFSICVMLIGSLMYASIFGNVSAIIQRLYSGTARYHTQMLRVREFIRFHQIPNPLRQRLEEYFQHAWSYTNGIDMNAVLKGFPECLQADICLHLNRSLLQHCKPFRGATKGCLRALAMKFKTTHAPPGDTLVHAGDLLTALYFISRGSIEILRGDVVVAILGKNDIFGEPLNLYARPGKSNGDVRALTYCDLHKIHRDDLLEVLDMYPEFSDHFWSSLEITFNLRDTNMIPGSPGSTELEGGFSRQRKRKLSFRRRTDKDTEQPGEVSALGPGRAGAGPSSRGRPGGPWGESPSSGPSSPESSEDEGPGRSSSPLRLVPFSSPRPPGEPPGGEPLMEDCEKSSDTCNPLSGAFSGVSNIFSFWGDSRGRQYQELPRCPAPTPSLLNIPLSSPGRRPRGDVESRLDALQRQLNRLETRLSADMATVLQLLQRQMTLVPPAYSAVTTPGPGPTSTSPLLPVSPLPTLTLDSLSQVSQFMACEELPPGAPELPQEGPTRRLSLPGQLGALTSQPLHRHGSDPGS
human stimulator of interferon genes (STING) (139-379), sequence (Q86WV6 139-379): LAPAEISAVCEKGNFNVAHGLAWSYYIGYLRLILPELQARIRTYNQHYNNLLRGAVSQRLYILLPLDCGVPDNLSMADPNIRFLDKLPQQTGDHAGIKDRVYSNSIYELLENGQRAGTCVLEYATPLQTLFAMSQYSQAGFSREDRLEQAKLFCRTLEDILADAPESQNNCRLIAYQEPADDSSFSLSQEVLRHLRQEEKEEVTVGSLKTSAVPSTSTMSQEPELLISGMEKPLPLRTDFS

Turning to `Cn1nc2cccc3c2c1CCCN(CC1CC1)C(=O)[C@@H]1C[C@@H](CN1c1ncnc2c1cnn2-c1ccc(F)cc1F)Oc1cc-3ncn1` [Example 18, (8S,11S)-13-(cyclopropylmethyl)-10-[1-(2,4-difluorophenyl)pyrazolo[3,4-d]pyrimidin-4-yl]-18-methyl-7-oxa-3,5,10,13,18,19-hexazapentacyclo[15.6.1.1^2,6.1^8,11.0^20,24]hexacosa-1(23),2(26),3,5,17(24),19,21-heptaen-12-one], the IC50 came to 0.491 µM with STING (IFN-β in hPBMC) and 0.0125 µM in series [2]. The “Clearance of human microsome” value in series [1] is 12.4 mL/min/kg.
As for `CN1CCCc2c3c(cccc3nn2C)-c2cccc(n2)O[C@H]2C[C@@H](C1=O)N(c1ncnc3c1cnn3-c1ccc(F)cc1F)C2` [Example 9, (8S,11S)-10-[1-(2,4-difluorophenyl)pyrazolo[3,4-d]pyrimidin-4-yl]-13,18-dimethyl-7-oxa-10,13,18,19,26-pentazapentacyclo[15.6.1.1^2,6.1^8,11.0^20,24]hexacosa-1(23),2(26),3,5,17(24),19,21-heptaen-12-one], the IC50 is 1.58 µM with STING (IFN-β in hPBMC), 0.0178 µM in series [2] and above 20 µM against hERG channel. Also, in series [1], the “Clearance of human microsome” value is recorded as 11.6 mL/min/kg. Also, the IC20 against hERG channel was above 10 µM.
On to `COc1cc(F)ccc1-n1ncc2c(N3C[C@@H]4C[C@H]3C(=O)N(C)CCCc3c5c(cc(F)cc5nn3C)-c3ccnc(n3)O4)ncnc21` [Example 12, (8S,11S)-22-fluoro-10-[1-(4-fluoro-2-methoxy-phenyl)pyrazolo[3,4-d]pyrimidin-4-yl]-13,18-dimethyl-7-oxa-5,10,13,18,19,26-hexazapentacyclo[15.6.1.1^2,6.1^8,11.0^20,24]hexacosa-1(23),2(26),3,5,17(24),19,21-heptaen-12-one], for which the values for the IC50 (in the series with STING (IFN-β in hPBMC); in series [2]) were 1.41 µM and 0.018 µM, respectively. Besides, the “Clearance of human microsome” value in series [1] was 13.2 mL/min/kg.
For `Cn1nc2cccc3c2c1CCCN(CCC(C)(C)O)C(=O)[C@@H]1C[C@@H](CN1c1ncnc2c1cnn2-c1ccc(F)cc1F)Oc1cccc-3c1` [Example 40, (8S,11S)-10-[1-(2,4-difluorophenyl)pyrazolo[3,4-d]pyrimidin-4-yl]-13-(3-hydroxy-3-methyl-butyl)-18-methyl-7-oxa-10,13,18,19-tetrazapentacyclo[15.6.1.1^2,6.1^8,11.0^20,24]hexacosa-1(23),2(26),3,5,17(24),19,21-heptaen-12-one], in that order: 0.708 µM, 0.0086 µM and 15.6 mL/min/kg.
`Cn1nc2cccc3c2c1CCCN(CCCn1cnnn1)C(=O)[C@@H]1C[C@@H](CN1c1ncnc2c1cnn2-c1ccc(F)cc1F)Oc1cccc-3c1` [Example 36, (8S,11S)-10-[1-(2,4-difluorophenyl)pyrazolo[3,4-d]pyrimidin-4-yl]-18-methyl-13-[3-(tetrazol-1-yl)propyl]-7-oxa-10,13,18,19-tetrazapentacyclo[15.6.1.1^2,6.1^8,11.0^20,24]hexacosa-1(23),2(26),3,5,17(24),19,21-heptaen-12-one]: the IC50 was 1.57 µM with STING (IFN-β in hPBMC) and 0.0013 µM in series [2]. In addition, in series [1], the “Clearance of human microsome” value came to 11.9 mL/min/kg.
For `CN1CCCc2c3c(cccc3nn2C)-c2ccnc(n2)N[C@H]2C[C@@H](C1=O)N(c1ncnc3c1cnn3-c1ccc(F)cc1F)C2` [Example 4, (8S,11S)-10-[1-(2,4-difluorophenyl)pyrazolo[3,4-d]pyrimidin-4-yl]-13,18-dimethyl-5,7,10,13,18,19,26-heptazapentacyclo[15.6.1.1^2,6.1^8,11.0^20,24]hexacosa-1(23),2,4,6(26),17(24),19,21-heptaen-12-one], the IC50 in the series on STING (IFN-β in hPBMC) stood at 0.413 µM; in series [2], 0.0005 µM. Further, the “Clearance of human microsome” value in series [1] is recorded as 15.0 mL/min/kg.
Consider `Cn1nc2cccc3c2c1CCCN(CCO)C(=O)[C@@H]1C[C@@H](CN1c1ncnc2c1cnn2-c1ccc(F)cc1F)Oc1cccc-3c1` [Example 22, (8S,11S)-10-[1-(2,4-difluorophenyl)pyrazolo[3,4-d]pyrimidin-4-yl]-13-(2-hydroxyethyl)-18-methyl-7-oxa-10,13,18,19-tetrazapentacyclo[15.6.1.1^2,6.1^8,11.0^20,24]hexacosa-1(23),2(26),3,5,17(24),19,21-heptaen-12-one], for which the results for the IC50 (in the series with STING (IFN-β in hPBMC); in series [2]) were 0.264 µM and 0.0002 µM, respectively. In series [1], the “Clearance of human microsome” value is given as 15.5 mL/min/kg.
With `COc1cc(F)ccc1-n1ncc2c(N3C[C@@H]4C[C@H]3C(=O)N(CCCN3CCOCC3)CCCc3c5c(cccc5nn3C)-c3cccc(n3)N4)ncnc21` [Example 43, (8S,11S)-10-[1-(4-fluoro-2-methoxy-phenyl)pyrazolo[3,4-d]pyrimidin-4-yl]-18-methyl-13-(3-morpholinopropyl)-7,10,13,18,19,26-hexazapentacyclo[15.6.1.1^2,6.1^8,11.0^20,24]hexacosa-1(23),2(26),3,5,17(24),19,21-heptaen-12-one], the IC50 is 0.292 µM in the series with STING (IFN-β in hPBMC), 0.0035 µM in series [2] and above 20 µM against hERG channel. The “Clearance of human microsome” value in series [1] is recorded as 12.0 mL/min/kg. The IC20 on hERG channel is above 10 µM.
With `CN1CC2CC1CN2CCCN1CCCc2c3c(cccc3nn2C)-c2cccc(c2)O[C@H]2C[C@@H](C1=O)N(c1ncnc3c1cnn3-c1ccc(F)cc1F)C2` [Example 34, (8S,11S)-10-[1-(2,4-difluorophenyl)pyrazolo[3,4-d]pyrimidin-4-yl]-18-methyl-13-[3-(5-methyl-2,5-diazabicyclo[2.2.1]heptan-2-yl)propyl]-7-oxa-10,13,18,19-tetrazapentacyclo[15.6.1.1^2,6.1^8,11.0^20,24]hexacosa-1(23),2(26),3,5,17(24),19,21-heptaen-12-one], the values for the IC50 (in the series on STING (IFN-β in hPBMC); in series [2]) were 2.49 µM and 0.007 µM, respectively. Besides, in series [1], the “Clearance of human microsome” value came out at 6.1 mL/min/kg.
Regarding `Cn1nc2cccc3c2c1CCCNC(=O)[C@@H]1C[C@@H](CN1c1ncnc2c1cnn2-c1ccc(F)cc1F)Oc1ccnc-3c1` [Example 10, (8S,11S)-10-[1-(2,4-difluorophenyl)pyrazolo[3,4-d]pyrimidin-4-yl]-18-methyl-7-oxa-3,10,13,18,19-pentazapentacyclo[15.6.1.1^2,6.1^8,11.0^20,24]hexacosa-1(23),2(26),3,5,17(24),19,21-heptaen-12-one], the “Clearance of human microsome” value in series [1] is reported as 8.3 mL/min/kg. The IC50 was 0.0051 µM in series [2] and above 10 µM against hERG channel. The 20% effect level on hERG channel (IC20) was put at 8.2 µM.
With `Cn1nc2cccc3c2c1CCCN(CC1CC1)C(=O)[C@@H]1C[C@@H](CN1c1ncnc2c1cnn2-c1ccc(F)cc1F)Oc1nccc-3n1` [Example 19, (8S,11S)-13-(cyclopropylmethyl)-10-[1-(2,4-difluorophenyl)pyrazolo[3,4-d]pyrimidin-4-yl]-18-methyl-7-oxa-5,10,13,18,19,26-hexazapentacyclo[15.6.1.1^2,6.1^8,11.0^20,24]hexacosa-1(23),2(26),3,5,17(24),19,21-heptaen-12-one], the IC50 amounted to 0.976 µM in the series on STING (IFN-β in hPBMC) and 0.0131 µM in series [2]. Moreover, in series [1], the “Clearance of human microsome” value amounted to 10.0 mL/min/kg.
